Some results are limits rather than exact numbers.

The target of this assay is T1, recombinant full length LRRK2 over-expressed in SH-SY5Y cells (Homo sapiens, UniProt Q5S007).
T1 construct: A BacMam virus expressing full length recombinant LRRK2 was purchased from Invitrogen; host or cells: SH-SY5Y human neuroblastoma cells transduced with BacMam LRRK2 virus
T1 sequence (Q5S007 whole entry): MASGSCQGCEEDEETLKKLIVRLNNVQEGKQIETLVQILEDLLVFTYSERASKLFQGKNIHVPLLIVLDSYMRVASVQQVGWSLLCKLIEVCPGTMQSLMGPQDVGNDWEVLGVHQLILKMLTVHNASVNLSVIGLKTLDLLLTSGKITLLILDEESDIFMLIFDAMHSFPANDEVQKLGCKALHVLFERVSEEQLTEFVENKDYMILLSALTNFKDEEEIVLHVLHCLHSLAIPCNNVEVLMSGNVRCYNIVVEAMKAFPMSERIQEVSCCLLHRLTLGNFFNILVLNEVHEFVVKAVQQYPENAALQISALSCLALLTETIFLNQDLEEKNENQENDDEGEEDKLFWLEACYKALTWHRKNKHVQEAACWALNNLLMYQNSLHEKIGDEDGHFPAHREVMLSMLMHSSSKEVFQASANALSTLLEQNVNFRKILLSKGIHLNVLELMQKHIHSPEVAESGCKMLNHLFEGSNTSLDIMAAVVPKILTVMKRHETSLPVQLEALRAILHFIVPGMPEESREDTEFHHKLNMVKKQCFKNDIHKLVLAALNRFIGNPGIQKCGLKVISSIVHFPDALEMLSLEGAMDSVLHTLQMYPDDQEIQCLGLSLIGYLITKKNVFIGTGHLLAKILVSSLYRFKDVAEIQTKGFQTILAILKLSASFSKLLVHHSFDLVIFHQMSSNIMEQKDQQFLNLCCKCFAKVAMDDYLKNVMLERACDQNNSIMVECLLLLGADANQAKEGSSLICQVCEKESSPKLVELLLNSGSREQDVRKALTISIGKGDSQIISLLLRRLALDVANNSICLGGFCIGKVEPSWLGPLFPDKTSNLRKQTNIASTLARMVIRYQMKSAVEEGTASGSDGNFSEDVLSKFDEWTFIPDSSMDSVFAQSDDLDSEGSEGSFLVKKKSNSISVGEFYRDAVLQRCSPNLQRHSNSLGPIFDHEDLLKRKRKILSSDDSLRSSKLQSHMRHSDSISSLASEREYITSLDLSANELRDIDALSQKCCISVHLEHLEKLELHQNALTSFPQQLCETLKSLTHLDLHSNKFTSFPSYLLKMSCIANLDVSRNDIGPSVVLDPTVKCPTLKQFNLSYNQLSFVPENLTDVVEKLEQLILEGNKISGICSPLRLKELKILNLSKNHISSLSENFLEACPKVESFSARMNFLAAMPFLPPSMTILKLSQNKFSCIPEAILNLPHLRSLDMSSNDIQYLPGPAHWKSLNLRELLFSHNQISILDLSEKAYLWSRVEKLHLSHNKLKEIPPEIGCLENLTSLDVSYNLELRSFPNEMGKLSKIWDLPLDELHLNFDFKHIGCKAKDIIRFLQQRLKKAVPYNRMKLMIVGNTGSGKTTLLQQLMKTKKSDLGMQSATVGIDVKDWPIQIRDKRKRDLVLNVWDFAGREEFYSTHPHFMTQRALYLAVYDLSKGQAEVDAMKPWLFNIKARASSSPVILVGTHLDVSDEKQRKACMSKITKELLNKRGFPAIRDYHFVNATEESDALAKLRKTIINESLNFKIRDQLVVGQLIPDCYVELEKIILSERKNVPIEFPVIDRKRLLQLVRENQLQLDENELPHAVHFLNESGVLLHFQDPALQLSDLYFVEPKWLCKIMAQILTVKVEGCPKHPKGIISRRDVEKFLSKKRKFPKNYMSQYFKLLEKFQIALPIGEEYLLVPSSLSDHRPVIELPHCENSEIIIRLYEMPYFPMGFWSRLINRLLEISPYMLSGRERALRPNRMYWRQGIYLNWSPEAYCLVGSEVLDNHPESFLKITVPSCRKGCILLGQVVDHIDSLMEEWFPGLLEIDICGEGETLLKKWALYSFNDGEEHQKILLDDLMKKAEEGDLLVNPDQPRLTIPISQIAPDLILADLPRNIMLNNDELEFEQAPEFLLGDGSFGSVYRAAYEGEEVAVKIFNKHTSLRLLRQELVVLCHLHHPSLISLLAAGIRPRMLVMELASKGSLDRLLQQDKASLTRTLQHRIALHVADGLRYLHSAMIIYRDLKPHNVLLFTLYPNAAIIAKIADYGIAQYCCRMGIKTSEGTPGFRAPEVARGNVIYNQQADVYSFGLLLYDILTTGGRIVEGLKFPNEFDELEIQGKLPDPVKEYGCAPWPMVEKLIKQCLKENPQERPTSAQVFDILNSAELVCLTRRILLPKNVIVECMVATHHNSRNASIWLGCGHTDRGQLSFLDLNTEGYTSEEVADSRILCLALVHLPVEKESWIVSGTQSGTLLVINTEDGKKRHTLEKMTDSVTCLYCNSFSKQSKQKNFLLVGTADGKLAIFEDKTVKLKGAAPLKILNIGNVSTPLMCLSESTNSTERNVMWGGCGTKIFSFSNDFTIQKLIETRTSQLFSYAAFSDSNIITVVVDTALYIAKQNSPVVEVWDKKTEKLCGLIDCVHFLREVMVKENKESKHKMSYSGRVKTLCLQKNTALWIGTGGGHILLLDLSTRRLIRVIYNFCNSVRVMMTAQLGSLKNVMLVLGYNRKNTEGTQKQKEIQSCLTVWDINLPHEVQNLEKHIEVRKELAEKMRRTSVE
The experiment in a line: Recombinant cellular LRRK2 AlphaScreen assay (LRRK2 Ser935 phosphorylation). The assay is classed as cell-based. The conditions noted are these: SH-SY5Y cells with BacMam LRRK2, 60 minutes compound incubation, read-out: recombinant cellcular LRRK2 alphaScreen assay (pIC50) (converted). How it is done: Recombinant Cellular LRRK2 AlphaScreen Assay
A BacMam virus expressing full length recombinant LRRK2 was purchased from Invitrogen and amplified by inoculation of SF-9 cells at MOI 0.3 for 4-5 days in Sf-900 III SFM medium supplemented with 3% fetal bovine serum. Infected cell cultures were then centrifuged at 2000 g for 20 minutes, viral supernatant titer determined by anti-gp64 plaque assay and stored at 4° C.
Affinity-purified anti-phospho LRRK2 Ser935 sheep polyclonal antibody (Dzamko et al., 2010, Biochem. J. 430: 405-413) was biotinylated by standard methods (PerkinElmer). Anti-LRRK2 rabbit polyclonal antibody was purchased from Novus Biologicals. AlphaScreen Protein A IgG Kit (including acceptor and donor beads) was purchased from Perkin Elmer.
SH-SY5Y cells were grown in DMEM/F12 medium with 10% dialysed fetal bovine serum and harvested by treatment with 0.5% trypsin-EDTA for 5 minutes at […] followed by centrifugation at 1000 rpm for 4 minutes. The cell pellet was resuspended in Opti-MEM reduced serum media (Invitrogen) at 200,000 cells/ml and mixed with the BacMam LRRK2 virus at MOI=50. 50 μl cell solutions were then dispensed to each well of a 384-well plate and incubated at 37° C., 5% CO2 for 24 hours.
Serial dilutions of test compounds were prepared in Opti-MEM reduced serum media (Invitrogen) and 5.6 ul transferred from compound plate to cell assay plate to achieve a top final assay concentration of 10 uM. DMSO was used in certain wells as controls. Cells were incubated at 37° C., 5% CO2 for 60 minutes. The medium was then removed and cells lysed by addition of 20 ul cell lysis buffer (Cell Signaling Technology) and incubation at 4° C. for 20 minutes. 10 ul of antibody/acceptor bead mix [(1/1000 biotinylated-pS935 LRRK2 antibody, 1/1000 total-LRRK2 antibody, 1/100 Acceptor beads in AlphaScreen detection buffer (25 mM Hepes (pH 7.4), 0.5% Triton X-100, 1 mg/ml Dextran 500 and 0.1% BSA)] was then added to each well and plates incubated for 2 hours at ambient temperature in the dark. 10 μl of donor beads solution (1/33.3 donor beads in AlphaScreen detection buffer) was then added to each well. Following incubation for a further 2 hours at ambient temperature in the dark, plates were read on an EnVision™ plate reader at emission 520-620 nm with excitation 680 nm. Dose response curve data was based on sigmoidal dose-response model.
A general note: In Alpha technology, singlet oxygen from a donor bead excites a nearby acceptor bead.
Consider `CCOc1nc(Nc2ccc(C(=O)N3CCN(C)CC3)cc2)nc2[nH]ccc12` [Example E15, (4-((4-ethoxy-7H-pyrrolo-[2,3-d]-pyrimidin-2-yl)amino)phenyl)(4-methylpiperazin-1-yl)methanone], for which the IC50 was at most 100 nM. As for `CCOc1nc(Nc2ccc(C(=O)N3CCOCC3)c(OC)c2)nc2[nH]ccc12` [Example E18, (4-((4-ethoxy-7H-pyrrolo-[2,3-d]-pyrimidin-2-yl)amino)-2-methoxyphenyl)(morpholino)methanone], the figure is at most 100 nM; as for `CCOc1nc(Nc2ccc(C(=O)N3CCOC[C@H]3C)cc2OC)nc2[nH]ccc12` [Example E30, (R)-(4-((4-ethoxy-7H-pyrrolo[2,3-d]pyrimidin-2-yl)amino)-3-methoxyphenyl)(3-methylmorpholino)methanone], at most 100 nM; as for `CCOc1nc(Nc2ccc(C(=O)N3CCOCC3)cc2OC)nc2[nH]cc(C)c12` [Example E32, (4-((4-ethoxy-5-methyl-7H-pyrrolo-[2,3-d]pyrimidin-2-yl)amino)-3-methoxyphenyl)(morpholino)methanone], at most 100 nM.

For `COc1cc(C(=O)N2CCN(C)CC2)ccc1Nc1nc(OCC2CC2)c2cc[nH]c2n1` [Example E33, (4-((4-(cyclopropylmethoxy)-7H-pyrrolo-[2,3-d]pyrimidin-2-yl)amino)-3-methoxyphenyl)(4-methylpiperazin-1-yl) methanone], the IC50 is at most 100 nM.

In the case of `COc1cc(C(=O)N2CCOCC2)ccc1Nc1nc(OCC2CC2)c2cc[nH]c2n1` [Example E34, (4-((4-(cyclopropylmethoxy)-7H-pyrrolo-[2,3-d]pyrimidin-2-yl)amino)-3-methoxyphenyl)(morpholino)methanone], the IC50 was at most 100 nM. As for `CCOc1nc(Nc2ccc(C(=O)N3CCOCC3)cc2OC)nc2[nH]cc(C#N)c12` [Example E59, 4-ethoxy-2-((2-methoxy-4-(morpholine-4-carbonyl)phenyl)amino)-7H-pyrrolo[2,3-d]pyrimidine-5-carbonitrile], the figure is at most 100 nM.

Values taken from patent publication US9815841B2, “Compounds” (GLAXOSMITHKLINE INTELLECTUAL PROPERTY DEVELOPMENT LIMITED, priority 2014, dated 2017).
